Assay in all cases: Cross-resistance testing, His-tagged column-purified PDS (Table 2A)
The target of experiment [1] is hydrilla PDS Arg^304 → Serine, His-tagged (Hydrilla verticillata, UniProt Q66PY0, R304S). The format is biochemical. The conditions noted are these: Serine at 304; His-tagged, column-purified PDS; read-out: I50. From the text: (§1) In further cross-resistance testing similar to that described above, an alternative production and purification protocol was used in the preparation of the mutant PDS proteins, and the activity of the proteins was again tested using the same testing protocol. The alternative approach utilized His-tagging and column purification of the mutant PDS protins. The results are shown in. Table 2A below.
hydrilla PDS Arg^304 → Serine, His-tagged (Hydrilla verticillata, UniProt Q66PY0, R304S), sequence (Q66PY0 77-580 R304S): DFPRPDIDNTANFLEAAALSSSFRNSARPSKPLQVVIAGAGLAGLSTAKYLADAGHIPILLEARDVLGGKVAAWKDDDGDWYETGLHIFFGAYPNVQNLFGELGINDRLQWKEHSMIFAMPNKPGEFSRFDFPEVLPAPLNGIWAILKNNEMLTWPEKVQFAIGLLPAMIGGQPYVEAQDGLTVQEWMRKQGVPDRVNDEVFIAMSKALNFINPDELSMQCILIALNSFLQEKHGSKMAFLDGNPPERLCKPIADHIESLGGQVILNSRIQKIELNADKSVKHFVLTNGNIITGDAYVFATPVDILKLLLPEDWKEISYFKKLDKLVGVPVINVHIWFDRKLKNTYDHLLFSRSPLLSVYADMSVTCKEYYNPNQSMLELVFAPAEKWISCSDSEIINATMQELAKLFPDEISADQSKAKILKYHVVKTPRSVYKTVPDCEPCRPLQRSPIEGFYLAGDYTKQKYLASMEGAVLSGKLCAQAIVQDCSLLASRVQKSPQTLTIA
(§2) The plasmid pHy4ATG5 was made by cloning the Phytoene Desaturase (pds) gene from Hydrilla verticillata, including 323 by upstream of the beginning of the putative mature protein, into the vector TOPO4 (Invitrogen, Carlsbad, Calif.): The 1-323 by region contained three potential start codons (ATG)(positions 1, 114 and 225 bp) in frame with pds. In order to express pds in bacteria, deletion clones were made for each of the three potential start codons with and without ATG. Only the results for possible origins of translation 1 and 225 by (named ORF and 3ORF) are reported here. pds was PCR amplified and subcloned into TOPO4 using pHy4ATG5 as template and the reverse primer RPDS—1849 (5′[…] 3′). The forward primers used were ORF (5′ […] 3′), ORF-ATG (5′ […] 3′), 3_ORF (5′[…] 3′) and 3_ORF-ATG (5′ […] 3′). The resulting plasmids were named pORF, pORF-ATG (minus ATG codon), p3ORF and p3ORF-ATG. The pds-containing EcoRI-fragments of these plasmids were subcloned into the EcoRI site of pRSETb vector (Invitrogen) for Histidine tagging and bacterial expression. The resulting constructs were pHy4SET, pHy4SET-ATG (minus ATG), p3ORFSET and p3ORFSET-ATG.
(§3) Plasmid p3ORF-ATG was later mutagenized at the amino acid 304 of pds to replace the amino acid Arginine (Arg) by Histidine (His), Threonine (Thr), Serine (Ser), or Cysteine (Cys), using the QuickChange™ Site-Directed Mutagenesis Kit of Stratagene (La Jolla, Calif.). Primers used to replace Arg by His were Hyd-His-For (5′[…] 3′) and Hyd-His-Rev (5′ […] 3′); to replace Arg by Thr we used primers Hyd-Thr-For (5′[…] 3′) and Hyd-Thr-Rev (5′[…] 3′); to replace Arg by Ser we used Hyd-Ser-For (5′[…] 3′) and Hyd-Ser-Rev (5′[…] 3′); and Arg was replaced by Cys using Hyd-Cys-For (5′[…] 3′) and Hyd-Cys-Rev (5′[…] 3′). Resulting plasmids were named: p3ORFHisSet-ATG, p3ORFThrSet-ATG, p3ORFSerSet-ATG and p3ORFCysSet-ATG.
(§4) All pRSET derived constructs were transformed into BL21(DE3)pLysS cells (Invitrogen), induced with IPTG for protein expression, and the His tag overproduced proteins analyzed by Western blot using Anti-HisG antibody (Invitrogen, cat. #R940-25).
(§5) When working with His-tagged PDS proteins expressed as described in Example 4, the purified protein used for testing was prepared as follows. BL21(DE3)pLysS cells were grown overnight in 500 ml Luria Broth (LB) supplemented with carbenicillin (100 mg/l) and cloramphenicol (60 mg/l) at 37° C., and induced with 0.3 mM isopropylthio-β-D-galactoside (IPTG) for 3 hrs. Cells were lysed using a French press (Spectronics Instrument) at 20,000 psi and overexpressed PDS was purified on a nickel activated Hitrap Chelating HP column according to the manufacturers instructions (Amersham Bioscience).
(§6) Generally, PDS protein fractions prepared as described above (Non-His-tagged and His-tagged) were mixed with a soluble fraction from phytoene-producing E. coli cells. For the phytoene producing cells, a plasmid construct containing the genes GGPP synthase and phytoene synthase from Erwinia uredovora, transformed into the appropriate E. coli strain, was used (see, Misawa et al., J. of Bacteriology 177:6575, 1995). This E. coli strain was separately cultured and lysed, and its soluble components collected (“the EB extract”) in a fashion similar to that described above for the PDS-producing cells.
(§7) His-tagged, purified proteins prepared as described above were transferred to the assay buffer on a PD10 column (Amersham Bioscience) and the concentration was adjusted to 100 μg/mL. […]

Experiment [2] deals with hydrilla PDS Arg^304 → Histidine, His-tagged. The format is biochemical, Hydrilla verticillata. The conditions noted are these: Histidine at 304 relative to Arginine; Table 2A.
Description: as §1, §2, §3, §4, §5, §6, §7

Experiment [3] relates to hydrilla PDS Arg^304 → Serine, His-tagged. The format is biochemical, Hydrilla verticillata. The conditions noted are these: Serine at 304 relative to Arginine; Table 2A.
Description: as §1, §2, §3, §4, §5, §6, §7

In experiment [4] the test system is hydrilla PDS Arg^304 → Cysteine, His-tagged. Type of experiment: biochemical, Hydrilla verticillata. The conditions noted are these: Cysteine at 304 relative to Arginine; Table 2A.
Description: as §1, §2, §3, §4, §5, §6, §7

Experiment [5] concerns the target hydrilla PDS Arg^304 → Histidine, His-tagged (Hydrilla verticillata, UniProt Q66PY0, R304H). Type of experiment: biochemical. The conditions noted are these: Histidine at 304; His-tagged, column-purified PDS; read-out: I50.
Description: as §1, §2, §3, §4, §5, §6, §7

In experiment [6] the target is hydrilla PDS Arg^304 → Cysteine, His-tagged (Hydrilla verticillata, UniProt Q66PY0, R304C). Type of experiment: biochemical. The conditions noted are these: Cysteine at 304; His-tagged, column-purified PDS; read-out: I50.
hydrilla PDS Arg^304 → Cysteine, His-tagged (Hydrilla verticillata, UniProt Q66PY0, R304C), sequence (Q66PY0 77-580 R304C): as the sequence (Q66PY0 77-580 R304S) above, with S228C counted along it
Description: as §1, §2, §3, §4, §5, §6, §7

hydrilla PDS Arg^304 → Histidine, His-tagged (Hydrilla verticillata, UniProt Q66PY0, R304H), sequence (Q66PY0 77-580 R304H): as the sequence (Q66PY0 77-580 R304S) above, with S228H counted along it

As to `CCC(Oc1ccc(F)c(C(F)(F)F)c1)C(=O)NCc1ccccc1` (stereo not drawn) [Beflubutamid], the IC50 in experiment [1] is 465 µM; in experiment [5], 126 µM; in experiment [6], 232 µM. Besides, the R/S stood at 1.75 in experiment [2], 6.5 in experiment [3] and 3.2 in experiment [4].

For `O=C(Nc1ccc(F)cc1F)c1cccnc1Oc1cccc(C(F)(F)F)c1` [Diflufenican], the IC50 in experiment [1] was 223 µM; in experiment [5], 103 µM; in experiment [6], 241 µM. In addition, the R/S in experiment [2] is 1.0; in experiment [3], 2.2; in experiment [4], 2.4.

Take `O=C1C(Cl)C(CCl)CN1c1cccc(C(F)(F)F)c1` (stereo not drawn) [Fluorochloridone]: the IC50 in experiment [1] was 518 µM; in experiment [5], 364 µM; in experiment [6], 283 µM. Moreover, the R/S was found to be 2.8 in experiment [2], 4.0 in experiment [3] and 2.2 in experiment [4].

Take `CNC1=C(c2cccc(C(F)(F)F)c2)C(=O)C(c2ccccc2)O1` (stereo not drawn) [Flurtamone]: the IC50 in experiment [1] came out at 707 µM; in experiment [5], 630 µM; in experiment [6] it was 1150 µM. Moreover, the R/S was 2.1 in experiment [2], 2.4 in experiment [3] and 3.8 in experiment [4].

For `CNc1cnn(-c2cccc(C(F)(F)F)c2)c(=O)c1Cl` [Norflurazon], the IC50 in experiment [1] turned out to be 4100 µM; in experiment [5], 486 µM; in experiment [6] it was 1870 µM. For the same compound, the R/S was determined as 9.7 in experiment [2], 82.0 in experiment [3] and 37.0 in experiment [4].

`O=C(Nc1ccc(F)cc1)c1cccc(Oc2cccc(C(F)(F)F)c2)n1` [Piconilafen, Picolinafen]: the IC50 in experiment [1] amounted to 62 µM; in experiment [5], 112 µM; in experiment [6], 96 µM. In addition, the R/S was 0.3 in experiment [2], 0.2 in experiment [3] and 0.3 in experiment [4].

For the compound Fluridone, the figures for the R/S in experiment [2], in experiment [3] and in experiment [4] were 4.8, 2.0 and 2.6, respectively.

(Values after patent US20110098180A1, “Herbicide-Resistant Plants, And Polynucleotides And Methods For Providing Same” (United States Department of Agriculture, priority 2002, published 2011).)
